Assay results: PubChem BioAssay AID328 (DTP/NCI, 2004)
Several values for one entry are separate records, joined by “and”; a condition that tells them apart may be missing. Equal values may be shown once. Inconclusive results and toxic doses are left out.

System: BDF1 mice, P388 leukemia ip, median survival T/C
Experiment: NCI In Vivo Anticancer Drug Screen. Data for tumor model P388 Leukemia (intraperitoneal) in B6D2F1 (BDF1) mice
Settings: endpoint: median survival time, higher = longer survival
Method in brief: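 Mice carrying the transplantable tumour receive compound or vehicle. Survival is followed in each arm, and the treated measure is divided by the vehicle measure.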

[1] = dose: 100.0 mg/kg/injection, schedule: Q01DX009 (ip), vehicle: saline with Tween-80
[2] = dose: 100.0 mg/kg/injection, schedule: Q04DX003 (ip), vehicle: Klucel (hydroxypropylcellulose) (HPC)
[3] = dose: 200.0 mg/kg/injection, schedule: Q04DX003 (ip), vehicle: Klucel (hydroxypropylcellulose) (HPC)
[4] = dose: 400.0 mg/kg/injection, schedule: Q04DX003 (ip), vehicle: Klucel (hydroxypropylcellulose) (HPC)
[5] = dose: 6.25 mg/kg/injection, schedule: Q01DX009 (ip), vehicle: Klucel (hydroxypropylcellulose) (HPC)
[6] = dose: 12.5 mg/kg/injection, schedule: Q01DX009 (ip), vehicle: Klucel (hydroxypropylcellulose) (HPC)
[7] = dose: 200.0 mg/kg/injection, schedule: Q01DX009 (ip), vehicle: saline with Tween-80
[8] = dose: 400.0 mg/kg/injection, schedule: Q01DX009 (ip), vehicle: saline with Tween-80
[9] = dose: 50.0 mg/kg/injection, schedule: Q01DX009 (ip), vehicle: Klucel (hydroxypropylcellulose) (HPC)

## O=C(Nc1ccc(NC(=O)c2ccc(C3=NCCCN3)cc2)cc1)Nc1ccc(C2=NCCCN2)cc1
dose: 2.5 mg/kg/injection, schedule: Q01DX009 (ip), vehicle: saline with Tween-80
  T/C: 113 % of control
dose: 5.0 mg/kg/injection, schedule: Q01DX009 (ip), vehicle: saline with Tween-80
  T/C: 168 % of control
dose: 5.0 mg/kg/injection, schedule: Q04DX003 (ip), vehicle: saline with Tween-80
  T/C: 109 % of control
dose: 6.6 mg/kg/injection, schedule: Q01DX009 (ip), vehicle: saline with Tween-80
  T/C: 175 % of control
dose: 10.0 mg/kg/injection, schedule: Q01DX009 (ip), vehicle: saline with Tween-80
  T/C: 233 % of control and 204 % of control
dose: 10.0 mg/kg/injection, schedule: Q04DX003 (ip), vehicle: saline with Tween-80
  T/C: 109 % of control
dose: 15.0 mg/kg/injection, schedule: Q01DX009 (ip), vehicle: saline with Tween-80
  T/C: 233 % of control

## O=[N+]([O-])c1ccc(SCc2ccccc2)c2nonc12
dose: 50.0 mg/kg/injection, schedule: Q01DX009 (ip), vehicle: saline with Tween-80
  T/C: 150 % of control
[1]
  T/C: 153 % of control

## CS/C(N)=N/N
dose: 6.25 mg/kg/injection, schedule: Q04DX003 (ip), vehicle: saline
  T/C: 95 % of control
dose: 12.5 mg/kg/injection, schedule: Q04DX003 (ip), vehicle: saline
  T/C: 108 % of control

## CCOC(=O)C1OC1(C)c1ccccc1 (configuration not stated)
dose: 75.0 mg/kg/injection, schedule: Q01DX009 (ip), vehicle: Klucel (hydroxypropylcellulose) (HPC)
  T/C: 95 % of control
[2]
  T/C: 100 % of control and 103 % of control
dose: 150.0 mg/kg/injection, schedule: Q01DX009 (ip), vehicle: Klucel (hydroxypropylcellulose) (HPC)
  T/C: 90 % of control
[3]
  T/C: 100 % of control and 111 % of control
dose: 300.0 mg/kg/injection, schedule: Q01DX009 (ip), vehicle: Klucel (hydroxypropylcellulose) (HPC)
  T/C: 113 % of control
[4]
  T/C: 92 % of control and 104 % of control

## CC1(C)N=C(N)N=C(N)N1c1cccc(OCCCOc2ccccc2)c1
dose: 50.0 mg/kg/injection, schedule: Q01DX001 (ip), vehicle: Klucel (hydroxypropylcellulose) (HPC)
  T/C: 106 % of control

## CC(C)=CCC/C(C)=C/CN1C(=O)C=CC1=O
dose: 0.39 mg/kg/injection, schedule: Q01DX009 (ip), vehicle: water
  T/C: 94 % of control
dose: 0.78 mg/kg/injection, schedule: Q01DX009 (ip), vehicle: water
  T/C: 100 % of control
dose: 1.56 mg/kg/injection, schedule: Q01DX009 (ip), vehicle: water
  T/C: 112 % of control
dose: 3.12 mg/kg/injection, schedule: Q01DX009 (ip), vehicle: water
  T/C: 112 % of control
dose: 6.25 mg/kg/injection, schedule: Q01DX009 (ip), vehicle: water
  T/C: 111 % of control
dose: 12.5 mg/kg/injection, schedule: Q01DX009 (ip), vehicle: water
  T/C: 89 % of control

## CCN1CC1
dose: 3.12 mg/kg/injection, schedule: Q01DX001 (ip), vehicle: Klucel (hydroxypropylcellulose) (HPC)
  T/C: 113 % of control
dose: 6.25 mg/kg/injection, schedule: Q01DX001 (ip), vehicle: Klucel (hydroxypropylcellulose) (HPC)
  T/C: 118 % of control
[5]
  T/C: 90 % of control
dose: 12.5 mg/kg/injection, schedule: Q01DX001 (ip), vehicle: Klucel (hydroxypropylcellulose) (HPC)
  T/C: 86 % of control
[6]
  T/C: 86 % of control

## O=C(CSc1ncnc2nc[nH]c12)c1ccccc1
[1]
  T/C: 104 % of control
dose: 100.0 mg/kg/injection, schedule: Q04DX003 (ip), vehicle: saline with Tween-80
  T/C: 86 % of control
[7]
  T/C: 104 % of control
dose: 200.0 mg/kg/injection, schedule: Q04DX003 (ip), vehicle: saline with Tween-80
  T/C: 100 % of control
[8]
  T/C: 100 % of control
dose: 400.0 mg/kg/injection, schedule: Q04DX003 (ip), vehicle: saline with Tween-80
  T/C: 91 % of control

## O=C1C(C2OC2c2ccccc2)CCCC1C1OC1c1ccccc1 (configuration not stated)
dose: 100.0 mg/kg/injection, schedule: Q04DX003 (ip), vehicle: saline sonified
  T/C: 100 % of control
[7]
  T/C: 91 % of control
dose: 200.0 mg/kg/injection, schedule: Q04DX003 (ip), vehicle: saline sonified
  T/C: 95 % of control
[8]
  T/C: 87 % of control
dose: 400.0 mg/kg/injection, schedule: Q04DX003 (ip), vehicle: saline sonified
  T/C: 95 % of control

## O=S(=O)(O)c1ccncc1
dose: 100.0 mg/kg/injection, schedule: Q01DX001 (ip), vehicle: saline
  T/C: 116 % of control
dose: 200.0 mg/kg/injection, schedule: Q01DX001 (ip), vehicle: saline
  T/C: 104 % of control
dose: 400.0 mg/kg/injection, schedule: Q01DX001 (ip), vehicle: saline
  T/C: 87 % of control

## Cc1cc(C)c(N)c(C)c1N
dose: 25.0 mg/kg/injection, schedule: Q01DX009 (ip), vehicle: Klucel (hydroxypropylcellulose) (HPC)
  T/C: 118 % of control
[9]
  T/C: 95 % of control
dose: 100.0 mg/kg/injection, schedule: Q04DX003 (ip), vehicle: other
  T/C: 105 % of control
dose: 200.0 mg/kg/injection, schedule: Q04DX003 (ip), vehicle: other
  T/C: 100 % of control
dose: 400.0 mg/kg/injection, schedule: Q04DX003 (ip), vehicle: other
  T/C: 105 % of control

## Cc1cc(O)c2cc3c(O)c(O)ccc3cc2c1
dose: 0.5 mg/kg/injection, schedule: Q01DX010 (ip), vehicle: saline
  T/C: 100 % of control
dose: 1.0 mg/kg/injection, schedule: Q01DX010 (ip), vehicle: saline
  T/C: 109 % of control
dose: 2.0 mg/kg/injection, schedule: Q01DX010 (ip), vehicle: saline
  T/C: 118 % of control and 122 % of control
dose: 4.0 mg/kg/injection, schedule: Q01DX010 (ip), vehicle: saline
  T/C: 122 % of control
dose: 31.3 micrograms/kg/injection, schedule: Q01DX010 (ip), vehicle: saline
  T/C: 109 % of control
dose: 125.0 micrograms/kg/injection, schedule: Q01DX010 (ip), vehicle: saline
  T/C: 90 % of control
dose: 250.0 micrograms/kg/injection, schedule: Q01DX010 (ip), vehicle: saline
  T/C: 90 % of control

## O=C1c2ccccc2-c2ncccc21
[2]
  T/C: 100 % of control
[3]
  T/C: 95 % of control

## Cc1ccccc1NS(=O)(=O)c1c([N+](=O)[O-])ncn1C
[9]
  T/C: 110 % of control
dose: 100.0 mg/kg/injection, schedule: Q01DX009 (ip), vehicle: Klucel (hydroxypropylcellulose) (HPC)
  T/C: 116 % of control
dose: 200.0 mg/kg/injection, schedule: Q01DX009 (ip), vehicle: Klucel (hydroxypropylcellulose) (HPC)
  T/C: 116 % of control
dose: 400.0 mg/kg/injection, schedule: Q01DX009 (ip), vehicle: Klucel (hydroxypropylcellulose) (HPC)
  T/C: 95 % of control

## COC(=O)CNC(=O)C(CSCc1ccccc1)NC(=O)OCc1ccccc1 (configuration not stated)
[2]
  T/C: 95 % of control
[3]
  T/C: 100 % of control
[4]
  T/C: 90 % of control

## Cn1c(=O)c2ncnnc2n(C)c1=O
dose: 1.5 mg/kg/injection, schedule: Q01DX009 (ip), vehicle: Klucel (hydroxypropylcellulose) (HPC)
  T/C: 103 % of control
dose: 3.0 mg/kg/injection, schedule: Q01DX009 (ip), vehicle: Klucel (hydroxypropylcellulose) (HPC)
  T/C: 107 % of control
dose: 6.0 mg/kg/injection, schedule: Q01DX009 (ip), vehicle: Klucel (hydroxypropylcellulose) (HPC)
  T/C: 112 % of control
[5]
  T/C: 250 % of control
dose: 12.0 mg/kg/injection, schedule: Q01DX009 (ip), vehicle: Klucel (hydroxypropylcellulose) (HPC)
  T/C: 106 % of control
[6]
  T/C: 108 % of control

## O=[N+]([O-])c1ccc(/C=C2\c3ccccc3-c3nc4ccccc4nc32)cc1
dose: 150.0 mg/kg/injection, schedule: Q01DX001 (ip), vehicle: other
  T/C: 118 % of control
dose: 300.0 mg/kg/injection, schedule: Q01DX001 (ip), vehicle: other
  T/C: 86 % of control

## CCOC(=O)C1=C(N)CC(c2ccc(C#N)cc2)NC1c1cccc(OC)c1O (configuration not stated)
dose: 100.0 mg/kg/injection, schedule: Q01DX001 (ip), vehicle: saline with Tween-80
  T/C: 105 % of control
dose: 200.0 mg/kg/injection, schedule: Q01DX001 (ip), vehicle: saline with Tween-80
  T/C: 111 % of control

## C1CC[N+]2(CC1)CCC2
dose: 25.0 mg/kg/injection, schedule: Q01DX009 (ip), vehicle: saline
  T/C: 113 % of control
dose: 50.0 mg/kg/injection, schedule: Q01DX009 (ip), vehicle: saline
  T/C: 109 % of control
dose: 100.0 mg/kg/injection, schedule: Q01DX009 (ip), vehicle: saline
  T/C: 100 % of control
